Patent US5162218A, “Conjugated polypeptides and methods for their preparation” (The Regents of the University of California, priority 1991, dated 1992)

Key:
[1] = biological target: T1, MOPC315 IgA Fab fragment, thiolated Fab labeled with bromoketone 4 (thiol tethered at tyrosine 34L) (Mus musculus, UniProt P01729+P01822); test: Ester cleavage assay; assay type: biochemical
T1 construct: Fab fragment, generated by treating the reduced and alkylated IgA with papain; made in house
Description: (§1) Cleavage of DNP coumarin esters 14 and 15 by the thiol-containing antibodies was assayed in the presence and absence of 0.1 μM NaCl, 50 mM sodium phosphate, pH 7.0, with 24 μM dithiothreitol at 10° C. The release of free coumarin was quantitated fluorometrically, exciting at 355 nm and measuring emission at 455 nm. The S-thiopyridyl Fab was first dialyzed against assay buffer, 30 min. prior to the assays, an aliquot of the thiopyridyl Fab (0.15 mg in 0.19 ml) was reduced with 3.8 mM dithiothreitol at 20° C. For each assay, reduced, thiolated Fab (15 μg in 18.8 μl) was diluted with assay buffer (2.95 ml) so that the net concentrations of thiolated Fab and of dithiothreitol were 0.1 μM and 24 μM, respectively. After equilibrating, the substrate was added (30 μl of a stock solution in acetonitrile) and the solution mixed for 10 sec. before monitoring fluorescence change. Antibody rates were corrected by subtracting the rate of cleavage in the absence of Fab.
(§2) The reaction kinetics are consistent with the formation of a Michaelis complex (FIG. 6). […] Neither the uncleaved affinity-labeled antibody nor the iodoacetamide-alkylated antibody accelerated the rate of the thiolysis reaction above the background rate. The stoichiometry of product release corresponded to 1.0 coumarin to 1.0 Fab-SH. […]

[2] = biological target: IgA MOPC315, underivatized; test: Association of DNP ligands with the underivatized antibody; assay type: binding; details: underivatized MOPC 315
Description: The following studies were carried out on the IgA MOPC315, which binds substituted 2,4-dinitrophenyl (DNP) ligands with association constants ranging from 5×10^4 to 10^6 M^-1 (Haselkorn et al. (1974) Biochemistry 13:2210). Although a three-dimensional structure is not available, the antibody combining site has been characterized by spectroscopic methods (UV, fluorometry, NMR), chemical modification, and amino acid sequencing of the variable region. Moreover, earlier affinity-labeling studies with reagents of varying structures (Givol and Wilcheck (1977) Meth. Enzy. 46:479; Givol et al. (1971) Biochemistry 10:3461; and Strausbauch et al. (1971) Biochemistry 10:4342) defined a number of reactive amino acid side chains in the vicinity of the combining site.
(§3) Fluorescence quenching experiments were carried out at 10° C. using 492 nm for excitation and measuring emission at 521 nm. The fluorescein-Fab adduct was diluted wi.:h assay buffer (50 mM NaCl. 50 mM sodium phosphate, pH 7.0) to 0.10 μM. Aliquots of 2,4-DNP-glycinewere added and, after mixing, the fluorescence observed. The association constant of DNP-glycine to the fluorescein-Fab adduct was determined to be 3.0×10^5 M^-1, almost identical to the KA of DNP-glycine to underivatized MOPC 315, 2.0×10^5 M^-1.

[3] = biological target: T2, MOPC315 IgA Fab fragment, thiolated Fab labeled with 2 (Fab-SH, thiol tethered at residue 52H of the heavy chain) (Mus musculus, UniProt P01729+P01822); test: Ester cleavage (thiolysis) assay, fluorometric release of coumarin; assay type: biochemical
T2 construct: Fab fragment, generated by treating the reduced and alkylated IgA with papain; made in house
Description: as §1, §2

[4] = biological target: T3, MOPC315 fluorescein-Fab adduct (S-thiopyridyl Fab labeled with 2, derivatized with N-fluoresceinthioureido-2-mercaptoethylamine) (Mus musculus, UniProt P01729+P01822); test: Fluorescence quenching binding assay; details: 0.10 μM adduct, 50 mM NaCl, 50 mM sodium phosphate, pH 7.0, 10° C.; read-out: association constant (converted)
T3 construct: Fab fragment, generated by treating the reduced and alkylated IgA with papain; made in house
Description: FIG. 7 illustrates the results of a fluorescence quenching binding assay for DNP-glycine with fluorescein-Fab adduct (.quadrature.) versus control with fluorescein plus underivatized Fab ( ). Fluorescence quenching experiments were carried at 10° C. using 492 nm for excitation and measuring emission at 521 nm. The fluorescein-Fab adduct was diluted with assay buffer (above) to 0.10 μM. Aliquots of 2,4-DNP-glycine were added and, after mixing, the fluorescence observed. Free N-fluoresceinthioureido-2-mercapthoethylamine and underivatized Fab, each at 0.10 μM, were treated in a similar experiment.
as §3

MOPC315 IgA Fab fragment = biological target: T4, MOPC315 IgA Fab fragment (Mus musculus, UniProt P01729+P01822+P01844+P01878); test: Affinity labeling of Fab (incorporation of cleavable affinity labels); assay type: binding; details: for % Fab labeled (without DNP-glycine) / label incorporated: Fab 10 μM; for % Fab labeled (without DNP-glycine): 1.5 equivalents aldehyde plus NaCNBH3, pH 7.0, 37° C., 20 hours, or 1.3 equivalents α-bromoketone, pH 9.0, 37° C., 16 hours; for % Fab labeled (with DNP-glycine): as without, in the presence of 10 mM competitive inhibitor DNP-glycine; for label incorporated: 1.5 or 1.3 equivalents of label, 37° C.; for non-specific labeling: in the presence of 10 mM DNP-glycine
T4 construct: Fab fragment, generated by treating the reduced and alkylated IgA with papain; made in house
Description: The strategy for introducing a thiol into the binding site of MOPC315 is outlined in FIG. 3. These steps were carried out with the Fab fragment, generated by treating the reduced and alkylated IgA with papain followed by affinity chromatography on DNP-coupled Sepharose 4B (Goetzl (1970) Biochemistry 9:1267). The Fab fragment (at 10 μM) was treated with either 1.5 equivalents of aldehydes 1 or 2 for one hour followed by 7.5 equivalents of NaCNBH3, in 0.2M sodium phosphate; pH 7.0, at 37° C. for 20 hours, or with 1.3 equivalents of α-bromoketones 3, 4, or 5 in 0.1M sodium bicarbonate, pH 9.0; at 37° C. for 16 hours. In both cases, the labeled Fab was purified by chromatography on Sephadex G-50 in 0.1M sodium phosphate, pH 7.3, and, after lyophilization, subsequent affinity chromatography on DNP-coupled Sepharose 4B (Goetzl, supra.) to remove unlabeled or non-specifically labeled Fab. The extent of derivatization was quantitated spectrophotometrically (for labels 1 and 2, λmax =360 nm, , ε=12,800 M^-1 cm^-1) and additionally, for labels 1 and 2, by incorporation of tritium from NaCNB^3 H3 (using 12 mCi/millimole NaCNB^3 H3). […] In both cases, less than 10% non-specific labeling occurred in the presence of 10 mM of the competitive inhibitor DNP-glycine.

T4 sequence (P01822+P01878 fused): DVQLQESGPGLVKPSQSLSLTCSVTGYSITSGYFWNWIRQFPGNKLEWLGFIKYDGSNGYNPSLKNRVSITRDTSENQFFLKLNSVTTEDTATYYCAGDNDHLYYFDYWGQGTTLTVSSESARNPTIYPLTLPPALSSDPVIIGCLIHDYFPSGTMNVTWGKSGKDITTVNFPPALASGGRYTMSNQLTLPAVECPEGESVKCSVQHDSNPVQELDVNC
T4 sequence (P01729+P01844 fused): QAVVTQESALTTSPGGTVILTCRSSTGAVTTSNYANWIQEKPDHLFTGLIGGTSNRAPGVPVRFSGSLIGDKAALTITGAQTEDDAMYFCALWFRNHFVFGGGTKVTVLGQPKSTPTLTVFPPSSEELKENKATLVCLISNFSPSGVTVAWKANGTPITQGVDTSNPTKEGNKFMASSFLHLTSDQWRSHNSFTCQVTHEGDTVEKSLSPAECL
T2 sequence (P01822 19-137): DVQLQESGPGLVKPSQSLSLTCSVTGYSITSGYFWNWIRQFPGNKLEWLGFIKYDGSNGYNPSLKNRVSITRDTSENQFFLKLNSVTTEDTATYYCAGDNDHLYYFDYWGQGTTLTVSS
T2 sequence (P01729 20-129): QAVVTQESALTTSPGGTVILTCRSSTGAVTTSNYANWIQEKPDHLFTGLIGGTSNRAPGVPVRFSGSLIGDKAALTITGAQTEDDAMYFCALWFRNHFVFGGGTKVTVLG
T2 sequence (P01878 1-100 partner limits assumed): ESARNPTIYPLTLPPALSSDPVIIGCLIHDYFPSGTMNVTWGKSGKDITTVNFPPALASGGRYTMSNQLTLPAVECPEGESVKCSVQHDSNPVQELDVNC
T2 sequence (P01844 whole entry partner, the tested form may be a part): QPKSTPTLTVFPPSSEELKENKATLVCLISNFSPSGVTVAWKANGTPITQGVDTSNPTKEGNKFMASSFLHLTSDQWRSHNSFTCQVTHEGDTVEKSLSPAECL
T3 sequence (P01822 19-137): as the sequence (P01822 19-137) above
T3 sequence (P01729 20-129): as the sequence (P01729 20-129) above
T3 sequence (P01878 1-100 partner limits assumed): as the sequence (P01878 1-100 partner limits assumed) above
T3 sequence (P01844 whole entry partner, the tested form may be a part): as the sequence (P01844 whole entry partner, the tested form may be a part) above
T1 sequence (P01822 19-137): as the sequence (P01822 19-137) above
T1 sequence (P01729 20-129): as the sequence (P01729 20-129) above
T1 sequence (P01878 1-100 partner limits assumed): as the sequence (P01878 1-100 partner limits assumed) above
T1 sequence (P01844 whole entry partner, the tested form may be a part): as the sequence (P01844 whole entry partner, the tested form may be a part) above

SMILES	% Fab labeled (without DNP-glycine) (MOPC315 IgA Fab fragment) [%]	% Fab labeled (with DNP-glycine) (MOPC315 IgA Fab fragment) [%]	other results
CC(=O)Oc1ccc([N+](=O)[O-])cc1[N+](=O)[O-] [DNP-acetate]	–	–	hydrolysis of ester by thiolated Fab [1]: did not hydrolyze
O=C(O)CNc1ccc([N+](=O)[O-])cc1[N+](=O)[O-] [DNP-glycine]	–	–	KA [2]: 200000 M⁻¹; Ki [3]: 8 µM; Kd [4]: 3.33 µM
O=CCCSSCCNc1ccc([N+](=O)[O-])cc1[N+](=O)[O-] [compound 1, (N-2,4-Dinitrophenyl)-2-aminoethyl 3-oxopropyl disulfide]	22	5	–
O=CCCCSSCCNc1ccc([N+](=O)[O-])cc1[N+](=O)[O-] [compound 2]	95	10	label incorporated (MOPC315 IgA Fab fragment): over 90%; non-specific labeling (MOPC315 IgA Fab fragment): less than 10%
O=C(CBr)CCSc1ccc([N+](=O)[O-])cc1[N+](=O)[O-] [compound 3, 1-Bromo-2-oxo-4-(S-DNP)-mercaptobutane]	0	0	–
O=C(CBr)CCCSc1ccc([N+](=O)[O-])cc1[N+](=O)[O-] [compound 4, 1-Bromo-2-oxo-5-(S-DNP)-mercaptopentane]	85	0	label incorporated (MOPC315 IgA Fab fragment): over 90%; non-specific labeling (MOPC315 IgA Fab fragment): less than 10%
O=C(CBr)CCCCSc1ccc([N+](=O)[O-])cc1[N+](=O)[O-] [compound 5, 1-Bromo-2=oxo-6-(S-DNP)-mercaptohexane]	15	0	–
O=C(CCNc1ccc([N+](=O)[O-])cc1[N+](=O)[O-])Oc1ccc2ccc(=O)oc2c1 [ester 14, (N-DNP)-3-Aminopropanoic acid 7-hydroxycoumarin ester]	–	–	acceleration of cleavage, factor over the cleavage reaction in equimolar dithiothreitol ([3]; pH 7.0, 10° C.): 6×10^4
